{
  "source": "patent US11414406B2",
  "about": "“Antagonists of the muscarinic acetylcholine receptor M4” (Vanderbilt University, priority 2018, dated 2022)",
  "biological_target": "T1, Human M4 (Homo sapiens, UniProt P08173)",
  "T1 construct": "expressed in transfected cells",
  "T1 sequence (P08173 1-479)": "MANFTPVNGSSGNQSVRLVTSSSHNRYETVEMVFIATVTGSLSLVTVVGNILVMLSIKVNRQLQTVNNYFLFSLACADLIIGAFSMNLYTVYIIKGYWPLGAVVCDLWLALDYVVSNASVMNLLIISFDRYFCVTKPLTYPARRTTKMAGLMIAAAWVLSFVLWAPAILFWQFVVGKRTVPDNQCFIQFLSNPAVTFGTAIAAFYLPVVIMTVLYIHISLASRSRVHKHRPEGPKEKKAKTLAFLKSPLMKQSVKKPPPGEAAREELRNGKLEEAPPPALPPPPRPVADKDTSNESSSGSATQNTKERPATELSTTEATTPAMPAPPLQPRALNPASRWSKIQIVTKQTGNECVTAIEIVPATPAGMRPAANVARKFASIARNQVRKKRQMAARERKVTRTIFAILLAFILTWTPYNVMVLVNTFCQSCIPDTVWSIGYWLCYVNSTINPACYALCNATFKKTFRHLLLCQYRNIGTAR",
  "experiment": "mAChR M4 cell-based functional assay (calcium flux, decrease of EC80 acetylcholine response)",
  "details": "for IC50: decrease of response to EC80 acetylcholine",
  "method": "Human M4 cDNA, along with the chimeric G protein Gqi5, were transfected into Chinese hamster ovary (CHO-K1) cells purchased from the American Type Culture Collection using Lipofectamine2000. M4/Gqi5/CHO cells were grown in Ham's F-12 medium containing 10% heat-inactivated fetal bovine serum (FBS), 20 mM HEPES, 500 μg/mL G418 sulfate, and 200 μg/mL Hygromycin B.\nFor high throughput measurement of agonist-evoked increases in intracellular calcium, CHO-K1 cells stably expressing muscarinic receptors were plated in growth medium lacking G418 and hygromycin at 15,000 cells/20 μL/well in Greiner 384-well black-walled, tissue culture (TC)-treated, clear-bottom plates (VWR). Cells were incubated overnight at 37° C. and 5% CO2. The next day, cells were washed using an ELX 405 (BioTek) with assay buffer; the final volume was then aspirated to 20 μL. Next, 20 μL of a 2.3 μM stock of Fluo-4/acetoxymethyl ester (Invitrogen, Carlsbad, Calif.), prepared as a 2.3 mM stock in DMSO and mixed in a 1:1 ratio with 10% (w/v) Pluronic F-127 and diluted in assay buffer, was added to the wells and the cell plates were incubated for 50 min at 37° C. and 5% CO2. Dye was removed by washing with the ELX 405 and the final volume was aspirated to 20 μL. Compound master plates were formatted in a 10 point concentration-response curve (CRC) format (1:3 dilutions) in 100% DMSO with a starting concentration of 10 or 1 mM using a BRAVO liquid handler (Agilent). Test compound CRCs were then transferred to daughter plates (240 nL) using the Echo acoustic plate reformatter (Labcyte, Sunnyvale, Calif.) and then diluted into assay buffer (40 μL) to a 2× stock using a Thermo Fisher Combi (Thermo Fisher Scientific, Waltham, Mass.).\nCalcium flux was measured using the Functional Drug Screening System (FDSS) 6000 or 7000 (Hamamatsu Corporation, Tokyo, Japan) as an increase in the fluorescent static ratio. Compounds were applied to cells (20 μL, 2×) using the automated system of the FDSS at 2 seconds into the protocol and the data were collected at 1 Hz. At 143 s, 10 μL of an EC20 concentration of the muscarinic receptor agonist acetylcholine was added (5×), followed by the addition of 12 μL of an EC80 concentration of acetylcholine at the 268 s time point (5×). Agonist activity was analyzed as a concentration-dependent increase in calcium mobilization upon compound addition. Positive allosteric modulator activity was analyzed as a concentration-dependent increase in the EC20 acetylcholine response. Antagonist activity was analyzed as a concentration-dependent decrease in the EC80 acetylcholine response; for the purposes of the tables herein, an IC50 (inhibitory concentration 50) was calculated as a concentration-dependent decrease of the response elicited by an EC80 concentration of acetylcholine. Concentration-response curves were generated using a four-parameter logistical equation in XLFit curve fitting software (HMS, Bridgewater, N.J.) for Excel (Microsoft, Redmond, Wash.) or Prism (GraphPad Software, Inc., San Diego, Calif.) or the Dotmatics software platform (Dotmatics, Bishop's Stortford, UK).\nCompounds were synthesized as described above. Activity (IC50 and Emin) was determined in the inAChR M4 cell-based functional assay as described above and the data are shown in Table 2. The compound numbers correspond to the compound numbers used in Examples 1 and 2 and Tables 1 and 2.",
  "key": {"[1]": {"details": "M4/Gqi5/CHO-K1 cells, % ACh maximum at 30 μM, read-out: Emin (% ACh maximum at 30 μM)"}},
  "note": "Read-outs that look alike come from different tables or passages of the source.",
  "data": [
    {"smiles": "Cc1cc(CN2C[C@@H]3[C@H](C2)[C@H]3Nc2ccc(-c3cc(F)ccc3Cl)nn2)nn1C", "note": "[Compound 26, (1R,5S,6s)-N-[6-(2-chloro-5-fluoro-phenyl)pyridazin-3-yl]-3-[(1,5-dimethylpyrazol-3-yl)methyl]-3-azabicyclo[3.1.0]hexan-6-amine]", "values": [
      {"measurement": "remaining activity at 30 µM", "setting": "[1]", "result": 13, "unit": "%"},
      {"measurement": "IC50", "setting": "M4/Gqi5/CHO-K1 cells", "result": 4760, "unit": "nM"}
    ]},
    {"smiles": "Fc1ccc(-c2ccc(N[C@H]3[C@@H]4CN(CC5CCOCC5)C[C@@H]43)nn2)cc1", "note": "[Compound 10, (1R,5S,6s)-N-[6-(4-fluorophenyl)pyridazin-3-yl]-3-(tetrahydropyran-4-ylmethyl)-3-azabicyclo[3.1.0]hexan-6-amine]", "values": [
      {"measurement": "remaining activity at 30 µM", "setting": "[1]", "result": 37, "unit": "%"}
    ]},
    {"smiles": "Cc1nn(C)cc1-c1ccc(N[C@H]2[C@@H]3CN(CCC(C)(C)C)C[C@@H]32)nn1", "note": "[Compound 1, (1R,5S,6s)-3-(3,3-dimethylbutyl)-N-[6-(1,3-dimethylpyrazol-4-yl)pyridazin-3-yl]-3-azabicyclo[3.1.0]hexan-6-amine]", "values": [
      {"measurement": "remaining activity at 30 µM", "setting": "CHO-K1, read-out: Emin (% ACh maximum at 30 μM)", "result": 4.8, "unit": "%"},
      {"measurement": "IC50", "setting": "M4/Gqi5/CHO-K1 cells", "result": 280, "unit": "nM"}
    ]},
    {"smiles": "Fc1ccc(Cl)c(-c2ccc(N[C@H]3[C@@H]4CN(CC5CCOCC5)C[C@@H]43)nn2)c1", "note": "[Compound 12, (1R,5S,6s)-N-[6-(2-chloro-5-fluoro-phenyl)pyridazin-3-yl]-3-(tetrahydropyran-4-ylmethyl)-3-azabicyclo[3.1.0]hexan-6-amine]", "values": [
      {"measurement": "remaining activity at 30 µM", "setting": "[1]", "result": 8, "unit": "%"},
      {"measurement": "IC50", "setting": "M4/Gqi5/CHO-K1 cells", "result": 1110, "unit": "nM"}
    ]},
    {"smiles": "Cc1nn(C)cc1-c1ccc(CN[C@H]2[C@@H]3CN(CC4CCCCC4)C[C@@H]32)nn1", "note": "[Compound 7, (1R,5S,6s)-3-(cyclohexylmethyl)-N-((6-(1,3-dimethylpyrazol-4-yl)pyridazin-3-yl)methyl)-3-azabicyclo[3.1.0]hexan-6-amine]", "values": [
      {"measurement": "remaining activity at 30 µM", "setting": "[1]", "result": 32.5, "unit": "%"}
    ]},
    {"smiles": "CC(C)(C)CCN1C[C@@H]2[C@H](C1)[C@H]2NCc1ccc(-c2cc(F)ccc2Cl)nn1", "note": "[Compound 5, (1R,5S,6s)-N-((6-(2-chloro-5-fluoro-phenyl)pyridazin-3-yl)methyl)-3-(3,3-dimethylbutyl)-3-azabicyclo[3.1.0]hexan-6-amine]", "values": [
      {"measurement": "remaining activity at 30 µM", "setting": "[1]", "result": 20.4, "unit": "%"}
    ]},
    {"smiles": "Fc1ccc(F)c(-c2ccc(N[C@H]3[C@@H]4CN(Cc5ccccc5F)C[C@@H]43)nn2)c1", "note": "[Compound 33, (1R,5S,6s)-N-[6-(2,5-difluorophenyl)pyridazin-3-yl]-3-[(2-fluorophenyl)methyl]-3-azabicyclo[3.1.0]hexan-6-amine]", "values": [
      {"measurement": "remaining activity at 30 µM", "setting": "[1]", "result": 39, "unit": "%"}
    ]},
    {"smiles": "c1ccc(-c2ccc(N[C@H]3[C@@H]4CN(CC5CCOCC5)C[C@@H]43)nn2)cc1", "note": "[Compound 28, (1R,5S,6s)-N-(6-phenylpyridazin-3yl)-3-(tetrahydropyran-4-ylmethyl)-3-azabicyclo[3.1.0]hexan-6-amine]", "values": [
      {"measurement": "remaining activity at 30 µM", "setting": "[1]", "result": 28, "unit": "%"}
    ]},
    {"smiles": "Cc1nn(C)cc1-c1ccc(N[C@H]2[C@@H]3CN(CC4CC5C=CC4C5)C[C@@H]32)nn1", "note": "(stereo partly drawn) [Compound 2, (1R,5S,6s)-3-(5-bicyclo[2.2.1]hept-2-enylmethyl)-N-[6-(1,3-dimethylpyrazol-4-yl)pyridazin-3-yl]-3-azabicyclo[3.1.0]hexan-6-amine]", "values": [
      {"measurement": "remaining activity at 30 µM", "setting": "[1]", "result": 5, "unit": "%"},
      {"measurement": "IC50", "setting": "M4/Gqi5/CHO-K1 cells", "result": 100, "unit": "nM"}
    ]},
    {"smiles": "Cc1cc(CN2C[C@@H]3[C@H](C2)[C@H]3Nc2ccc(-c3cc(F)ccc3F)nn2)nn1C", "note": "[Compound 36, (1R,5S,6s)-N-[6-(2,5-difluorophenyl)pyridazin-3-yl]-3-[(1,5-dimethylpyrazol-3-yl)methyl]-3-azabicyclo[3.1.0]hexan-6-amine]", "values": [
      {"measurement": "remaining activity at 30 µM", "setting": "[1]", "result": 38, "unit": "%"}
    ]},
    {"smiles": "c1ccc2cc(-c3ccc(N[C@H]4[C@@H]5CN(CC6CCOCC6)C[C@@H]54)nn3)ccc2c1", "note": "[Compound 29, (1R,5S,6s)-N-[6-(2-naphthyl)pyridazin-3-yl]-3-(tetrahydropyran-4-ylmethyl)-3-azabicyclo[3.1.0]hexan-6-amine]", "values": [
      {"measurement": "remaining activity at 30 µM", "setting": "[1]", "result": 15, "unit": "%"}
    ]},
    {"smiles": "c1cnc2ccc(-c3ccc(N[C@H]4[C@@H]5CN(CC6CCOCC6)C[C@@H]54)nn3)cc2c1", "note": "[Compound 17, (1R,5S,6s)-N-[6-(6-quinolyl)pyridazin-3-yl]-3-(tetrahydropyran-4-ylmethyl)-3-azabicyclo[3.1.0]hexan-6-amine]", "values": [
      {"measurement": "remaining activity at 30 µM", "setting": "[1]", "result": 13, "unit": "%"},
      {"measurement": "IC50", "setting": "M4/Gqi5/CHO-K1 cells", "result": 3760, "unit": "nM"}
    ]},
    {"smiles": "Fc1cccc(Cl)c1-c1ccc(N[C@H]2[C@@H]3CN(CC4CCOCC4)C[C@@H]32)nn1", "note": "[Compound 15, (1R,5S,6s)-N-[6-(2-chloro-6-fluoro-phenyl)pyridazin-3-yl]-3-(tetrahydropyran-4-ylmethyl)-3-azabicyclo[3.1.0]hexan-6-amine]", "values": [
      {"measurement": "remaining activity at 30 µM", "setting": "[1]", "result": 14, "unit": "%"},
      {"measurement": "IC50", "setting": "M4/Gqi5/CHO-K1 cells", "result": 3180, "unit": "nM"}
    ]},
    {"smiles": "CC(C)(C)CCN1C[C@@H]2[C@H](C1)[C@H]2Nc1ccc(-c2cc(F)ccc2Cl)nn1", "note": "[Compound 27, (1R,5S,6s)-N-[6-(2-chloro-5-fluoro-phenyl)pyridazin-3-yl]-3-(3,3-dimethylbutyl)-3-azabicyclo[3.1.0]hexan-6-amine]", "values": [
      {"measurement": "remaining activity at 30 µM", "setting": "[1]", "result": 4, "unit": "%"},
      {"measurement": "IC50", "setting": "M4/Gqi5/CHO-K1 cells", "result": 25.5, "unit": "nM"}
    ]},
    {"smiles": "FC(F)(F)c1ccc(-c2ccc(N[C@H]3[C@@H]4CN(CC5CCOCC5)C[C@@H]43)nn2)cn1", "note": "[Compound 20, (1R,5S,6s)-3-(tetrahydropyran-4-ylmethyl)-N-[6-[6-(trifluoromethyl)-3-pyridyl]pyridazin-3-yl]-3-azabicyclo[3.1.0]hexan-6-amine]", "values": [
      {"measurement": "remaining activity at 30 µM", "setting": "[1]", "result": 48, "unit": "%"}
    ]},
    {"smiles": "Fc1ccc(F)c(-c2ccc(N[C@H]3[C@@H]4CN(CC5CCOCC5)C[C@@H]43)nn2)c1", "note": "[Compound 16, (1R,5S,6s)-N-[6-(2,5-difluorophenyl)pyridazin-3-yl]-3-(tetrahydropyran-4-ylmethyl)-3-azabicyclo[3.1.0]hexan-6-amine]", "values": [
      {"measurement": "remaining activity at 30 µM", "setting": "[1]", "result": 28, "unit": "%"}
    ]},
    {"smiles": "c1cc2c(cc1-c1ccc(N[C@H]3[C@@H]4CN(CC5CCOCC5)C[C@@H]43)nn1)OCO2", "note": "[Compound 30, (1R,5S,6s)-N-[6-(1,3-benzodioxol-5-yl)pyridazin-3-yl]-3-(tetrahydropyran-4-ylmethyl)-3-azabicyclo[3.1.0]hexan-6-amine]", "values": [
      {"measurement": "remaining activity at 30 µM", "setting": "[1]", "result": 16, "unit": "%"}
    ]},
    {"smiles": "Fc1cccc(-c2ccc(N[C@H]3[C@@H]4CN(CC5CCOCC5)C[C@@H]43)nn2)c1", "note": "[Compound 9, (1R,5S,6s)-N-[6-(3-fluorophenyl)pyridazin-3-yl]-3-(tetrahydropyran-4-ylmethyl)-3-azabicyclo[3.1.0]hexan-6-amine]", "values": [
      {"measurement": "remaining activity at 30 µM", "setting": "[1]", "result": 25, "unit": "%"}
    ]},
    {"smiles": "c1cc(C2CC2)ncc1-c1ccc(N[C@H]2[C@@H]3CN(CC4CCOCC4)C[C@@H]32)nn1", "note": "[Compound 21, (1R,5S,6s)-N-[6-(6-cyclopropyl-3-pyridyl)pyridazin-3-yl]-3-(tetrahydropyran-4-ylmethyl)-3-azabicyclo[3.1.0]hexan-6-amine]", "values": [
      {"measurement": "remaining activity at 30 µM", "setting": "[1]", "result": 30, "unit": "%"}
    ]}
  ]
}
